In PubChem BioAssay AID220 (DTP/NCI, 2004):
Where “and” joins values, the source holds several entries; their conditions need not be identical. Equal entries are not always repeated. Inconclusive results are not listed.

System: CD8F1 mice, subcutaneous mammary adenocarcinoma, T/C%
Test: NCI In Vivo Anticancer Drug Screen. Data for tumor model Mammary Adenocarcinoma CD8F1 (subcutaneous) in CD8F1
Settings: higher = larger tumour
Procedure, shortened: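 Ratio of treated to vehicle-control outcome, based on either survival or tumor size, in mice bearing transplantable tumors given the test compound.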

[1] = endpoint: median tumor weight (est.), dose: 25.0 mg/kg/injection, schedule: Q07DX005 (ip), vehicle: saline with Tween-80
[2] = endpoint: median tumor weight (est.), dose: 50.0 mg/kg/injection, schedule: Q07DX005 (ip), vehicle: saline with Tween-80
[3] = endpoint: median tumor weight (est.), dose: 100.0 mg/kg/injection, schedule: Q07DX005 (ip), vehicle: saline with Tween-80
[4] = endpoint: median tumor weight (est.), dose: 200.0 mg/kg/injection, schedule: Q07DX005 (ip), vehicle: saline with Tween-80
[5] = endpoint: median tumor weight change, dose: 125.0 mg/kg/injection, schedule: Q01DX001 (ip), vehicle: saline with Tween-80
[6] = endpoint: median tumor weight change, dose: 500.0 mg/kg/injection, schedule: Q01DX001 (ip), vehicle: saline with Tween-80
[7] = endpoint: median tumor weight change, dose: 125.0 mg/kg/injection, schedule: Q01DX001 (ip), vehicle: saline
[8] = endpoint: median tumor weight change, dose: 250.0 mg/kg/injection, schedule: Q01DX001 (ip), vehicle: saline

CN(Cc1cnc2nc(N)nc(N)c2n1)c1ccc(C(=O)N[C@@H](CCC(=O)O)C(=O)O)cc1
T/C (endpoint: mean tumor weight (est.), dose: 20.0 mg/kg/injection, schedule: Q07DX006 (ip), vehicle: sodium bicarbonate): 192 % of control | T/C (endpoint: mean tumor weight (est.), dose: 75.0 mg/kg/injection, schedule: Q07DX004 (ip), vehicle: sodium bicarbonate): 91 % of control | T/C (endpoint: mean tumor weight (est.), dose: 100.0 mg/kg/injection, schedule: Q07DX004 (ip), vehicle: sodium bicarbonate): 90 % of control | T/C (endpoint: mean tumor weight, dose: 2.0 mg/kg/injection, schedule: Q01DX009 (ip), vehicle: saline): 84 % of control | T/C (endpoint: mean tumor weight, dose: 2.0 mg/kg/injection, schedule: Q01DX009 (ip), vehicle: sodium bicarbonate): 234 % of control | T/C (endpoint: mean tumor weight, dose: 4.0 mg/kg/injection, schedule: Q01DX009 (ip), vehicle: saline): 44 % of control | T/C (endpoint: mean tumor weight, dose: 4.0 mg/kg/injection, schedule: Q01DX009 (ip), vehicle: sodium bicarbonate): 84 % of control | T/C (endpoint: mean tumor weight, dose: 12.5 mg/kg/injection, schedule: Q07DX004 (ip), vehicle: saline): 87 % of control | T/C (endpoint: mean tumor weight, dose: 25.0 mg/kg/injection, schedule: Q07DX004 (ip), vehicle: saline): 23 % of control | T/C (endpoint: mean tumor weight, dose: 25.0 mg/kg/injection, schedule: Q07DX006 (ip), vehicle: saline): 44 % of control | T/C (endpoint: mean tumor weight, dose: 50.0 mg/kg/injection, schedule: Q07DX003 (ip), vehicle: sodium bicarbonate): 50 % of control | T/C (endpoint: mean tumor weight, dose: 50.0 mg/kg/injection, schedule: Q07DX004 (ip), vehicle: saline): 26 % of control | T/C (endpoint: mean tumor weight, dose: 50.0 mg/kg/injection, schedule: Q07DX006 (ip), vehicle: saline): 93 % of control | T/C (endpoint: mean tumor weight, dose: 100.0 mg/kg/injection, schedule: Q07DX003 (ip), vehicle: sodium bicarbonate): 43 % of control | T/C (endpoint: mean tumor weight, dose: 100.0 mg/kg/injection, schedule: Q07DX006 (ip), vehicle: saline): 56 % of control | T/C (endpoint: mean tumor weight, dose: 150.0 mg/kg/injection, schedule: Q07DX005 (ip), vehicle: sodium bicarbonate): 107 % of control | T/C (endpoint: mean tumor weight, dose: 200.0 mg/kg/injection, schedule: Q07DX005 (ip), vehicle: sodium bicarbonate): 70 % of control | T/C (endpoint: mean tumor weight, dose: 250.0 mg/kg/injection, schedule: Q07DX005 (ip), vehicle: sodium bicarbonate): 45 % of control | T/C (endpoint: median tumor weight (est.), dose: 2.5 mg/kg/injection, schedule: Q07DX005 (ip), vehicle: sodium bicarbonate): 63 % of control | T/C (endpoint: median tumor weight (est.), dose: 5.0 mg/kg/injection, schedule: Q07DX005 (ip), vehicle: sodium bicarbonate): 110 % of control and 111 % of control | T/C (endpoint: median tumor weight (est.), dose: 20.0 mg/kg/injection, schedule: Q07DX005 (ip), vehicle: sodium bicarbonate): 112 % of control | T/C (endpoint: median tumor weight (est.), dose: 40.0 mg/kg/injection, schedule: Q07DX005 (ip), vehicle: sodium bicarbonate): 85 % of control and 107 % of control | T/C (endpoint: median tumor weight (est.), dose: 80.0 mg/kg/injection, schedule: Q07DX005 (ip), vehicle: sodium bicarbonate): 20 % of control

CC(=O)Oc1ccccc1O
T/C (endpoint: median tumor weight change, dose: 62.5 mg/kg/injection, schedule: Q01DX001 (ip), vehicle: saline + Tween-80 + alcohol): 50 % of control | T/C (endpoint: median tumor weight change, dose: 125.0 mg/kg/injection, schedule: Q01DX001 (ip), vehicle: saline + Tween-80 + alcohol): 57 % of control | T/C (endpoint: median tumor weight change, dose: 250.0 mg/kg/injection, schedule: Q01DX001 (ip), vehicle: saline + Tween-80 + alcohol): 58 % of control

Cn1cc(C2NC(=O)c3ccccc3N2)c2ccccc21 (configuration not stated)
T/C (endpoint: median tumor weight change, dose: 25.0 mg/kg/injection, schedule: Q01DX001 (ip), vehicle: Klucel (hydroxypropylcellulose) (HPC)): 85 % of control | T/C (endpoint: median tumor weight change, dose: 50.0 mg/kg/injection, schedule: Q01DX001 (ip), vehicle: Klucel (hydroxypropylcellulose) (HPC)): 85 % of control | T/C (endpoint: median tumor weight change, dose: 100.0 mg/kg/injection, schedule: Q01DX001 (ip), vehicle: Klucel (hydroxypropylcellulose) (HPC)): 91 % of control | T/C (endpoint: median tumor weight change, dose: 200.0 mg/kg/injection, schedule: Q01DX001 (ip), vehicle: Klucel (hydroxypropylcellulose) (HPC)): 71 % of control | T/C (endpoint: median tumor weight change, dose: 500.0 mg/kg/injection, schedule: Q01DX001 (ip), vehicle: Klucel (hydroxypropylcellulose) (HPC)): 68 % of control | T/C (endpoint: median tumor weight change, dose: 1000.0 mg/kg/injection, schedule: Q01DX001 (ip), vehicle: Klucel (hydroxypropylcellulose) (HPC)): 33 % of control

Nc1nc(N)c2cc(CNc3ccc(C(=O)NC(CC(=O)O)CC(=O)O)cc3)ccc2n1
T/C (endpoint: median tumor weight (est.), dose: 12.5 mg/kg/injection, schedule: Q07DX005 (ip), vehicle: Klucel (hydroxypropylcellulose) (HPC)): 86 % of control | T/C (endpoint: median tumor weight (est.), dose: 25.0 mg/kg/injection, schedule: Q07DX005 (ip), vehicle: Klucel (hydroxypropylcellulose) (HPC)): 92 % of control | T/C (endpoint: median tumor weight (est.), dose: 50.0 mg/kg/injection, schedule: Q07DX005 (ip), vehicle: Klucel (hydroxypropylcellulose) (HPC)): 81 % of control | T/C (endpoint: median tumor weight (est.), dose: 100.0 mg/kg/injection, schedule: Q07DX005 (ip), vehicle: Klucel (hydroxypropylcellulose) (HPC)): 54 % of control

C[C@H](CCC[C@H](C)OS(=O)(=O)c1ccccc1)OS(=O)(=O)c1ccccc1
T/C [1]: 57 % of control | T/C [2]: 41 % of control | T/C [3]: 57 % of control | T/C [4]: 39 % of control

COc1cc(OC)c(NC(=O)ON2C(=O)c3ccccc3C2=O)cc1Cl
T/C (endpoint: median tumor weight change, dose: 31.25 mg/kg/injection, schedule: Q01DX001 (ip), vehicle: saline with Tween-80): 62 % of control | T/C (endpoint: median tumor weight change, dose: 62.5 mg/kg/injection, schedule: Q01DX001 (ip), vehicle: saline with Tween-80): 81 % of control | T/C [5]: 92 % of control | T/C [6]: 26 % of control

COc1ccc2cc1Oc1ccc(cc1)C[C@H]1c3cc(c(OC)cc3CCN1C)Oc1c(OC)c(OC)cc3c1[C@H](C2)N(C)CC3
T/C [1]: 115 % of control | T/C [2]: 102 % of control | T/C [3]: 117 % of control | T/C [4]: 64 % of control | T/C (endpoint: median tumor weight (est.), dose: 400.0 mg/kg/injection, schedule: Q07DX005 (ip), vehicle: saline with Tween-80): 37 % of control

C[C@H](N)C(=O)N[C@@H]1[C@H]2C(=C(O)C[C@@H](O)[C@@H]2O)C(=O)O[C@@H]1C
T/C [7]: 101 % of control | T/C [8]: 120 % of control | T/C (endpoint: median tumor weight change, dose: 1000.0 mg/kg/injection, schedule: Q01DX001 (ip), vehicle: saline): 57 % of control | T/C (endpoint: median tumor weight change, dose: 2000.0 mg/kg/injection, schedule: Q01DX001 (ip), vehicle: saline): 86 % of control

Nc1nc(-c2ccccc2)c(Br)c(=O)[nH]1
T/C [5]: 115 % of control | T/C (endpoint: median tumor weight change, dose: 250.0 mg/kg/injection, schedule: Q01DX001 (ip), vehicle: saline with Tween-80): 96 % of control | T/C [6]: 93 % of control | T/C (endpoint: median tumor weight change, dose: 1000.0 mg/kg/injection, schedule: Q01DX001 (ip), vehicle: saline with Tween-80): 98 % of control

CC(=O)C1=C(O)C2(O)C(=O)c3c(c(C)c4ccc(C)c(O)c4c3O)CC2C(N)C1=O (configuration not stated)
T/C (endpoint: median tumor weight change, dose: 37.5 mg/kg/injection, schedule: Q01DX001 (ip), vehicle: saline + alcohol): 72 % of control | T/C (endpoint: median tumor weight change, dose: 38.0 mg/kg/injection, schedule: Q01DX001 (ip), vehicle: saline + alcohol): 100 % of control | T/C (endpoint: median tumor weight change, dose: 75.0 mg/kg/injection, schedule: Q01DX001 (ip), vehicle: saline + alcohol): 46 % of control and 60 % of control | T/C (endpoint: median tumor weight change, dose: 150.0 mg/kg/injection, schedule: Q01DX001 (ip), vehicle: saline + alcohol): 49 % of control

CC[C@@]1(O)C[C@H](OC2CC(N(C)C)C(OC3CC(O)C(OC4CC(O)C(O)C(C)O4)C(C)O3)C(C)O2)c2c(cc3c(c2O)C(=O)c2c(O)ccc(O)c2C3=O)[C@H]1C(=O)OC (some centres not stated)
T/C (endpoint: median tumor weight (est.), dose: 0.75 mg/kg/injection, schedule: Q07DX005 (ip), vehicle: other): 122 % of control | T/C (endpoint: median tumor weight (est.), dose: 3.0 mg/kg/injection, schedule: Q07DX005 (ip), vehicle: other): 84 % of control

C=C(C(=O)O)C(N)C(=O)O (configuration not stated)
T/C (endpoint: median tumor weight change, dose: 62.5 mg/kg/injection, schedule: Q01DX001 (ip), vehicle: saline): 96 % of control | T/C [7]: 100 % of control | T/C [8]: 61 % of control | T/C (endpoint: median tumor weight change, dose: 500.0 mg/kg/injection, schedule: Q01DX001 (ip), vehicle: saline): 71 % of control
